Assay: xn = mol fraction of the nth substance listed
Details: 101 kPa

Structure (SMILES)	electrical conductivity (278.15 K, x1 = 0.0255)	electrical conductivity (283.15 K, x1 = 0.0255)	electrical conductivity (293.15 K, x1 = 0.0255)	electrical conductivity (298.15 K, x1 = 0.0104)	electrical conductivity (298.15 K, x1 = 0.0155)	electrical conductivity (298.15 K, x1 = 0.0205)	electrical conductivity (298.15 K, x1 = 0.0255)	electrical conductivity (298.15 K, x1 = 0.05)	electrical conductivity (303.15 K, x1 = 0.0255)	electrical conductivity (318.15 K, x1 = 0.0255)	electrical conductivity (323.15 K, x1 = 0.0255)	electrical conductivity (328.15 K, x1 = 0.0255)	electrical conductivity (288.15 K, x1 = 0.0255)	electrical conductivity (298.15 K, x1 = 0.0052)	electrical conductivity (313.15 K, x1 = 0.0255)	electrical conductivity (333.15 K, x1 = 0.0255)	electrical conductivity (308.15 K, x1 = 0.0255)	other results
O=C([O-])C(F)(F)F.O=S(=O)(O)n1cc[n+](S(=O)(=O)O)c1 + CO	5.19 S/m	4.9 S/m	4.26 S/m	2.23 S/m	2.85 S/m	3.56 S/m	4.13 S/m	5.45 S/m	4.05 S/m	3.52 S/m	3.46 S/m	3.37 S/m						
CCCCc1n(S(=O)(=O)O)cc[n+]1S(=O)(=O)O.O=C([O-])C(F)(F)F + CO	3.18 S/m	3.01 S/m	2.72 S/m		1.76 S/m		2.65 S/m		2.45 S/m	1.91 S/m	1.73 S/m	1.69 S/m	2.89 S/m	1.41 S/m	2.08 S/m	1.57 S/m		
CCc1n(S(=O)(=O)O)cc[n+]1S(=O)(=O)O.O=C([O-])C(F)(F)F + CO	3.75 S/m			1.64 S/m	1.93 S/m	2.27 S/m			3.03 S/m	2.51 S/m	2.36 S/m	2.19 S/m	3.44 S/m			1.96 S/m	2.95 S/m	
Cc1n(S(=O)(=O)O)cc[n+]1S(=O)(=O)O.O=C([O-])C(F)(F)F + CO		4 S/m			2 S/m	2.41 S/m	3.29 S/m	4.44 S/m	3.01 S/m	2.84 S/m	2.73 S/m		3.64 S/m	1.38 S/m	2.86 S/m	2.32 S/m	2.98 S/m	electrical conductivity (298.15 K, x1 = 0.08): 4.49 S/m; electrical conductivity (298.15 K, x1 = 0.1): 4.52 S/m; electrical conductivity (298.15 K, x1 = 0.12): 4.03 S/m; electrical conductivity (298.15 K, x1 = 0.15): 3.28 S/m; electrical conductivity (298.15 K, x1 = 0.18): 2.42 S/m; electrical conductivity (298.15 K, x1 = 0.2): 1.71 S/m
